Assay results reported in publication PMC13210772, “Dual FLT3/MAPK14 Proteolysis-Targeting Chimera (PROTAC) Induces Potent Acute Myeloid Leukemia Cell Death” (Pharmaceuticals, 2026).

Tests used:
MAPK14 [1] = target: T1, MAPK14 (Homo sapiens, UniProt Q16539); assay: MAPK14 degradation, immunoblot in leukemia cells; format: cell-based; parameters: endogenous in cells; host or cells: K562, RS4-11, MV4-11, MOLM-13 (A17); MV4-11 (A20); conditions: K562, RS4-11, MV4-11 and MOLM-13 cells; 50 nM MA191, 24 h
FLT3-ITD [2] = target: T2, FLT3-ITD (Homo sapiens, UniProt P36888, INS600HVDFREYEYD); assay: Phosphorylation of FLT3-ITD, immunoblot in MV4-11 cells; format: cell-based; parameters: We treated MV4-11 cells with the synthesized degraders of FLT3; endogenous in cells; host or cells: MV4-11
T2 sequence (P36888 with tags, fused parts or gaps INS600HVDFREYEYD): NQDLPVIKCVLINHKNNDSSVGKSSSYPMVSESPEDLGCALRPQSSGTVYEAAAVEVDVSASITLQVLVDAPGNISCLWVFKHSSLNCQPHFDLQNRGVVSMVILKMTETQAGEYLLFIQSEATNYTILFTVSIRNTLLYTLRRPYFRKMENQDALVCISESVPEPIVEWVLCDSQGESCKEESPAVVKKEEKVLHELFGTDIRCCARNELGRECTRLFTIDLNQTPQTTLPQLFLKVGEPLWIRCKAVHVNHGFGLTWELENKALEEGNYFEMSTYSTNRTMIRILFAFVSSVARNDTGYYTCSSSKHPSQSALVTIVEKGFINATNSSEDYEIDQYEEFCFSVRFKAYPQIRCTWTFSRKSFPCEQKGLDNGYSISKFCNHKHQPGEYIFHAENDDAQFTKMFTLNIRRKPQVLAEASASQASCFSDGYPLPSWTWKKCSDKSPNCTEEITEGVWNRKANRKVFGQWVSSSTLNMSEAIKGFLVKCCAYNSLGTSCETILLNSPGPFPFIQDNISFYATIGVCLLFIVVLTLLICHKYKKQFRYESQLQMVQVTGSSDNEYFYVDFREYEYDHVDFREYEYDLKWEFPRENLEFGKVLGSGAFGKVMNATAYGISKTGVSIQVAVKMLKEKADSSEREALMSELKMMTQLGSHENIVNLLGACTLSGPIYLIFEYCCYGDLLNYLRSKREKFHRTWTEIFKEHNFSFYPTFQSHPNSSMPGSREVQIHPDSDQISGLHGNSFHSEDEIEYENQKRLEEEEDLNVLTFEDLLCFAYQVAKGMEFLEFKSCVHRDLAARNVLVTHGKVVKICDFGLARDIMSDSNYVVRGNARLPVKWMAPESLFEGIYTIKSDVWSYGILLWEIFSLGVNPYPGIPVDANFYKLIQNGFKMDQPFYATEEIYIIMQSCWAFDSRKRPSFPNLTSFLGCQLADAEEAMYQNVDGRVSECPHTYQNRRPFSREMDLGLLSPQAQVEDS
Excerpt: We aimed to delineate if the FLT3 inhibitor part of MA191 acts as a MAPK14 inhibitor in MV4-11 cells. We used the phosphorylation of FLT3-ITD and the phosphorylation of MAPK14 as markers for their activation. […] This finding is consistent with the detection of MAPK14 in the kinase selectivity profiling approach (Figure 3; MAPK14 is termed p38α therein).
(§1) Figure 7 Targeting MAPK14 augments anti-leukemic effects of an inhibition of FLT3-ITD. (a) The graphs show the mRNA levels of MAPK14 in leukemia cells and normal blood cells. […] All immunoblots show data from at least two independent repetitions. (c) Model for how inhibition of various signaling pathways affects AML cells (red, cytoplasm, blue, nucleus).

FLT3-ITD [3] = target: T2, FLT3-ITD; assay: FLT3-ITD degradation, immunoblot in MV4-11 cells; conditions: MV4-11 cells, 50 nM, 24 h
FLT3-ITD [4] = assay: KINOMEscan binding assay
Method: Binding to FLT3-ITD was determined using the KINOMEscan^TM assay (Eurofins DiscoverX Corporation, San Diego, CA, USA)
Kinase-tagged T7 phage strains were prepared in an E. coli host derived from the BL21 strain. E. coli were grown to log-phase and infected with T7 phage and incubated with shaking at 32 °C until lysis. The lysates were centrifuged and filtered to remove cell debris. The remaining kinases were produced in HEK-293 cells and subsequently tagged with DNA for qPCR detection. […] The liganded beads were blocked with excess biotin and washed with blocking buffer (SeaBlock (Pierce), 1% BSA, 0.05% Tween 20, 1 mM DTT) to remove unbound ligand and to reduce non-specific binding. […] The compounds were then diluted directly into the assays such that the final concentration of DMSO was 0.9%. All reactions performed in polypropylene 384-well plate. Each was a final volume of 0.02 mL. […] The kinase concentration in the eluates was measured by qPCR.

MAPK14 [5] = target: T1, MAPK14; assay: Phosphorylation of MAPK14, immunoblot in MV4-11 cells; format: cell-based; parameters: endogenous in cells; host or cells: K562, RS4-11, MV4-11, MOLM-13 (A17); MV4-11 (A20)
MV4-11 = tested on: MV4-11; parameters: method as in PMID 30427680, PMID 34959180, PMID 34694800, PMID 36332882, PMID 38655686; conditions: reported FLT3 PROTACs, Figure 1; cited from earlier work
MOLM-14 = tested on: MOLM-14; parameters: method as in PMID 36518702; conditions: reported FLT3 PROTAC, Figure 1; cited from earlier work
HL-60 = tested on: HL-60; parameters: method as in PMID 36332882; conditions: reported FLT3 PROTAC, Figure 1; cited from earlier work
caspase-3 = assay: Caspase-3 cleavage, immunoblot in MV4-11 cells; format: cell-based, human
Excerpt: The usefulness of a combined inhibition of FLT3-ITD and MAPK14 through depletion may also be effective against leukemia stem cells that require cytokines signaling through MAPK14 [48]. Further studies are necessary to test this idea.
as §1

T1 sequence (Q16539 2-360 limits assumed): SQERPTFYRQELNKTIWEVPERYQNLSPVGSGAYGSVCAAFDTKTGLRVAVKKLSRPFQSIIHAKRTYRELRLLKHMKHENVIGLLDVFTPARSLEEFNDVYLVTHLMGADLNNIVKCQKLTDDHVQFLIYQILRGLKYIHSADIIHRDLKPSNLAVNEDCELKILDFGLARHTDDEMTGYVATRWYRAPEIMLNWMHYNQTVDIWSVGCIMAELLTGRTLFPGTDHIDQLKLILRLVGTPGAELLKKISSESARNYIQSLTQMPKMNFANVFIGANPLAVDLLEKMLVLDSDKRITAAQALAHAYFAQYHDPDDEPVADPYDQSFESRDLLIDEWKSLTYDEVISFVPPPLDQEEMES

Structure (SMILES): Cc1ncsc1-c1ccc([C@H](C)NC(=O)[C@H]2C[C@H](O)CN2C(=O)[C@@H](NC(=O)[C@H]2CC[C@H](C(=O)N3CCN(CCNC(=O)c4cc(Oc5ccc(NC(=O)Nc6cc(C(C)(C)C)on6)cc5)ccn4)CC3)CC2)C(C)(C)C)cc1 [MA225, 4-(4-(3-(5-(tert-Butyl)isoxazol-3-yl)ureido)phenoxy)-N-(2-(4-(trans-4-(((S)-1-((2R,4S)-4-hydroxy-2-(((S)-1-(4-(4-methylthiazol-5-yl)phenyl)ethyl)carbamoyl)pyrrolidin-1-yl)-3,3-dimethyl-1-oxobutan-2-yl)carbamoyl)cyclohexanecarbonyl)piperazin-1-yl)ethyl)picolinamide]
- MAPK14 protein level, immunoblot (MAPK14 [1]): did not reduce the levels of FLT3-ITD and MAPK14
- phosphorylation of FLT3-ITD (FLT3-ITD [2]): inhibited the phosphorylation of FLT3-ITD
- % FLT3-ITD Degradation at 50 nM (FLT3-ITD [3]): No effect
- FLT3-ITD degradation (FLT3-ITD [3]): did not reduce the levels of FLT3-ITD and MAPK14
- % FLT3-ITD Binding at 1 µM (FLT3-ITD [4]): 97 ± 2%
- phosphorylated MAPK14 (p-MAPK14) (MAPK14 [5]): weak inhibition of phosphorylated MAPK14

Structure (SMILES): CCc1nc(C(N)=O)c(Nc2ccc(N3CCC(N4CCN(CC5CCN(C(=O)CCOCCOCCNc6cccc7c6C(=O)N(C6CCC(=O)NC6=O)C7=O)CC5)CC4)CC3)c(OC)c2)nc1NC1CCOCC1 (centres unmarked) [CRBN(FLT3)-8]
- IC50 (MV4-11): 0.9 nM
- IC50 (MOLM-14): 2.8 nM

Structure (SMILES): Cc1ncsc1-c1ccc(CNC(=O)[C@@H]2C[C@@H](O)CN2C(=O)[C@@H](NC(=O)COCCOCCNC(=O)c2c(C)[nH]c(/C=C3\C(=O)Nc4ccc(F)cc43)c2C)C(C)(C)C)cc1 [PROTAC5]
- IC50 (HL-60): 2900 ± 1500 nM

Structure (SMILES): Cc1ccc(-n2nc(C(C)(C)C)cc2NC(=O)Nc2ccc(OCCN3CCOCC3)c3ccccc23)cc1 [doramapimod, reference compound]
- phosphorylation of FLT3-ITD (FLT3-ITD [2]): did not affect FLT3-ITD and its activity
- caspase-3 cleavage (caspase-3): did not induce caspase-3 cleavage
